Results on one molecule are retold here after patent US8946301B2, “Targeting of T-lymphocytes to treat amyotrophic lateral sclerosis” (ALS Therapy Development Institute, priority 2011, dated 2015).

Entries after “also recorded” stand apart in the source; their conditions may differ.

In series [1] the test system is CD11b positive macrophages. The series can be described thus: Macrophage infiltration into gastrocnemius muscle / peripheral axons (anti-CD11b staining). The following applies: SOD1 animals, load 2.5 mg/kg then 1.8 mg/kg oral weekly from day 50, gastrocnemius at day 100, vs untreated SOD1. The series is classed as in vivo, mouse. As for the experimental part:
SOD1 animals were treated with a loading dose of 2.5 mg/kg fingolimod, followed by weekly oral dosing of 1.8 mg/kg. Dosing was initiated at 50 days of age for the three cohorts: • 1) Non transgenic controls • 2) untreated SOD1 • 3) SOD1 Fingolimod Treated “High Dose” (Load 2.5 mg/kg, 1.8 mg/kg Oral q7d)
Gastrocnemius muscle was harvested from non-transgenic control, untreated SOD1 and fingolimod treated animals at 100 days of age. Tissues were immediately embedded in OCT after harvesting. Frozen sections were H&E stained and hybridized with antibodies to detect macrophages (αCD11b antibody).

Series [2] has as its system blood cells. The series can be described thus: Complete blood cell counts in whole blood. The series is classed as in vivo, mouse. The following applies: vs untreated SOD1. As for the experimental part: FIG. 6 is a graph showing complete blood cell counts in whole blood. SOD1 animals received a loading dose of 2.5 mg/kg fingolimod orally, then oral 1.8 mg/kg once weekly for 3 weeks. Complete blood cell counts included basophils (BAS), eosinophils (EOS), monocytes (MON), lymphocytes (LYM), neutrophils (NEU), and white blood cells (WBC).
Whole blood counts were also measured. Upon sacrifice, blood was removed and complete blood cell counts were performed.

The test system of series [3] is CD8+ lymphocytes. The series can be described thus: FACS analysis of circulating CD8+ lymphocytes in whole blood of SOD1 mice. The series is classed as in vivo, mouse. The following applies: for CD8+ cells in whole blood: 4 hours after third dose, control approximately 5%. The method, then: FIG. 3A is a fluorescent activated cell sorting (FACS) analysis showing the reduction of CD8+ lymphocytes in the circulation of male SOD1 mice that results from fingolimod treatment. A high dose of fingolimod (IP Loading Dose 2.5 mg/kg, Maintenance Dose 1.8 mg/kg q7d), a low dose of fingolimod (IP Loading Dose 0.44 mg/kg, Maintenance Dose 0.32 mg/kg) and a vehicle control group were tested over 14 days. Tissues were harvested 4 hours after the third dose. This time point was selected to best characterize the behavior of lymphocytes when circulating levels of the drug were near peak.
The following dosage regimen was used to determine the dose dependent effects of fingolimod in SOD1 mice: • Cohorts: • 1) SOD1 Fingolimod Treated “High Dose” (Load 2.5 mg/kg, 1.8 mg/kg Oral q7d) • 4 hour post final dose harvest • 7 day post final dose harvest • 2) SOD1 Fingolimod Treated “Low Dose” (Load 0.44 mg/kg, 0.32 mg/kg Oral q7d) • 4 hour post final dose harvest • 7 day post final dose harvest • 3) SOD1 Vehicle Control • 4 hour post final dose harvest • 7 day post final dose harvest
The predicted plasma fingolimod load for both the high dose and the low dose regimes were determined, see FIGS. 2A and 2B. Tissues were harvested 4 hours after the third fingolimod dose. This time point was selected to best characterize the behavior of lymphocytes in animals treated with fingolimod when circulating levels of the drug are near peak concentration.

For series [4], the system named is G93A-SOD1 mice. The series can be described thus: Disease progression, onset and survival in the SOD1 ALS mouse model. The series is classed as in vivo. The following applies: vs untreated SOD1. An excerpt:
FIGS. 7A, 7B, 7C, and 7D are charts showing symptomatic neurological disease progression in untreated SOD1 mice and SOD1 fingolimod treated mice. FIGS. 7A and 7C show the results for SOD1 mice having a low number (14-20) of copies of the transgene. FIGS. 7B and 7D show the results for SOD1 mice having a high number (20-25) copies of the transgene. Neurological disease progression was defined as the average neurological score over time for male SOD1 mice. For each chart, the lower line represents the SOD1 fingolimod treated mice; the upper line (i.e., having lower probability at each age in days, Dage) represents the untreated SOD1 mice.
FIG. 8A is a chart comparing disease onset probability as assessed by the Cox Proportional Hazards model in untreated SOD1 and SOD1 fingolimod treated mice. The black right line represents the SOD1 fingolimod treated mice; the gray left line represents the untreated SOD1 mice.
FIG. 8B is a chart comparing survival as assessed by the Cox Proportional Hazards model in untreated SOD1 mice and SOD1 fingolimod treated mice for individual animals. The black right line represents the SOD1 fingolimod treated mice; the gray left line represents the untreated SOD1 mice.
FIG. 9A is a chart showing disease onset probability as calculated by the Weibull method versus time in untreated SOD1 mice and SOD1 fingolimod treated mice. The right line represents the SOD1 fingolimod treated mice; the left line represents the untreated SOD1 mice.
FIG. 9B is a chart showing survival as calculated by the Weibull method versus time in untreated SOD1 mice and SOD1 fingolimod treated mice. The right line represents the SOD1 fingolimod treated mice; the left line represents the untreated SOD1 mice.
To assess the impact of reducing T lymphocyte cell proliferation on disease progression in the SOD1 preclinical animal model, fingolimod was administered to SOD1 mice and parameters of disease progression were measured, including daily measurements of neurological severity score, as well as T lymphocyte cell proliferation.
Neurological scores for both hind legs were assessed daily for each mouse from 50 days of age. The neurological score employed a scale of 0 to 4 that was developed by observation at ALSTDI (Scott et al., 2008). […] Animals were assigned a score of 2 when the toes curled under at least twice during walking a distance of 12 inches, or any part of the foot was dragging along the cage bottom/table. Animals were assigned a score of 3 when they had rigid paralysis or minimal joint movement, or a foot was not being used for forward motion. Animals were assigned a score of 4 when they […] within 30 seconds after being laid on either side. At the point where at least one hind leg was scored as 2, food pellets were left on the cage bedding to permit easy access to food. If both hind legs were scored as 2, Nutra-Gel® (Bio-Serve #S4798) was provided as food in addition to food pellets placed on the cage bedding and a long sipper tube was placed on the water bottle.
Date and cause of death were recorded for each mouse. For humane reasons, animals were closely monitored and sacrificed as moribund prior to actual death using criteria for severe moribundity. To determine duration of survival reliably and humanely, the moribund state, defined as the inability of mice to right themselves 30 seconds after being placed on a side (a neurological score of 4) was used. The moribund mice were scored as “dead,” and were euthanized using carbon dioxide asphyxiation.
To determine the impact of reducing T lymphocyte cell proliferation on disease progression in the SOD1 preclinical animal model, a Weibull analysis was performed on the data from the animal study described in Examples 3-5.

For series [5] the following is noted: cited from earlier work.
Where [6] appears, read: whole blood, vs vehicle control.

Take `CCCCCCCCc1ccc(CCC(N)(CO)CO)cc1` [fingolimod, 2-amino-2-(4-octylphenethyl)propane-1,3-diol]: the “CD11b positive macrophages infiltrating the skeletal muscle / peripheral axons” value in series [1] is “significantly fewer”. Besides, the “CD11b positive macrophages infiltrating the skeletal muscle / peripheral axons” value in series [1] (listed as Fingolimod) was “ability to block macrophage infiltration into peripheral axons”. Besides, the “basophils (BAS) count” value in series [2] (load 2.5 mg/kg oral then 1.8 mg/kg once weekly for 3 weeks) is recorded as “decreased numbers”. In series [2] (same regimen), the “eosinophils (EOS) count” value was “decreased numbers”, the “lymphocytes (LYM) count” value was “decreased numbers”, the “monocytes (MON) count” value is “decreased numbers” and the “neutrophils (NEU) count” value is recorded as “no significant change”. Moreover, the “white blood cells (WBC) count” value in series [2] (same regimen) was “decreased numbers”. The “circulating CD8 positive cells in whole / peripheral blood (in words)” value in series [3] (SOD1 animals, high and low dose groups) is reported as “fewer; also recorded: transiently depletes”. Moreover, the “CD8+ cells in whole blood” value in series [3] (high dose (load 2.5 mg/kg, 1.8 mg/kg q7d)) is given as “less than 2%”. Besides, in series [3] (low dose (load 0.44 mg/kg, 0.32 mg/kg q7d)), the “CD8+ cells in whole blood” value is reported as “less than 2%”. For the same molecule, in series [3] (setting [6]), the “reduction in CD8+ cells” value was more than 66% and the “reduction in CD8+ cells (fold)” value is “over three-fold”. Further, in series [4] (SOD1 mice), the “disease onset probability (Weibull method)” value is “reduced disease onset probability” and the “survival probability (Weibull method)” value is “increased survival probability”. Besides, the “neurological score over time” value in series [4] (male SOD1 mice, high copy number (20-25 copies)) is on record as “improvement”. Besides, the “neurological score over time” value in series [4] (male SOD1 mice, low copy number (14-20 copies)) is “improvement”. Moreover, in series [4] (male SOD1 mice), the “disease onset probability (Cox Proportional Hazards model)” value is “delayed onset of disease” and the “survival (Cox Proportional Hazards model)” value was “extended survival”. The “CNS penetration and localization” value in series [5] (Foster et al. 2007) was “CNS penetrant and localizes in the CNS white matter”. Further, in series [5] (Meno-Tetang 2006), the “brain/plasma ratio (in words)” value is recorded as “high” and the “plasma half-life (in words)” value was “relatively long”.
